Experimental data reported in ChEMBL document CHEMBL1201862, “PubChem BioAssay data set” (2004).
Calls of active or inactive are those of the source.

Assays:
[1] = target: T1, Probable nicotinate-nucleotide adenylyltransferase (Staphylococcus aureus (strain N315), UniProt P65502); format: functional, Staphylococcus aureus subsp. aureus N315; settings: read-out: IC50_Mean;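 for IC50 Mean: confirmatory dose-response retesting of NadD inhibitor hits first found in an ultra-high-throughput screen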
[2] = target: T1, Probable nicotinate-nucleotide adenylyltransferase; format: functional, Staphylococcus aureus subsp. aureus N315
[3] = miR-122 activators in hepatoma reporter cells, dose response, cell-based, Huh7 psiCHECK-miR122, Renilla luciferase, cherry-picked (AID 651956); format: functional;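 note: huh7 hepatoma cells stably carrying a psiCHECK-2 miR-122 sensor plasmid; renilla luciferase signal reporting endogenous miR-122 activity after 48 h compound exposure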
[4] = target: T2, Corticotropin-releasing factor receptor 2/Corticotropin-releasing factor-binding protein (Homo sapiens, UniProt P24387+Q13324); experiment: activators of CRF receptor 2 with binding protein – uHTS hits, confirmation (AID 602473); format: functional; settings: read-out: EC50_Mean
T2 sequence (Q13324 whole entry): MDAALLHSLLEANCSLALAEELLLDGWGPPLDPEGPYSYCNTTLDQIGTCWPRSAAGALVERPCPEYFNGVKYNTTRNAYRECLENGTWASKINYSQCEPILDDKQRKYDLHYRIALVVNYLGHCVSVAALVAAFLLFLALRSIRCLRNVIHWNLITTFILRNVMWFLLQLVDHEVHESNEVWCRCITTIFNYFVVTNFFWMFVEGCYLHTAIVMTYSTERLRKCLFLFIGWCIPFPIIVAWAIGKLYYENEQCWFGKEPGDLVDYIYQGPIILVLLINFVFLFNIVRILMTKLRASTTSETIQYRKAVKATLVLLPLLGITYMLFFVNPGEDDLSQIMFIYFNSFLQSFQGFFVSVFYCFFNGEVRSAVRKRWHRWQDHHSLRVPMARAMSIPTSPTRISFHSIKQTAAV
T2 sequence (P24387 whole entry): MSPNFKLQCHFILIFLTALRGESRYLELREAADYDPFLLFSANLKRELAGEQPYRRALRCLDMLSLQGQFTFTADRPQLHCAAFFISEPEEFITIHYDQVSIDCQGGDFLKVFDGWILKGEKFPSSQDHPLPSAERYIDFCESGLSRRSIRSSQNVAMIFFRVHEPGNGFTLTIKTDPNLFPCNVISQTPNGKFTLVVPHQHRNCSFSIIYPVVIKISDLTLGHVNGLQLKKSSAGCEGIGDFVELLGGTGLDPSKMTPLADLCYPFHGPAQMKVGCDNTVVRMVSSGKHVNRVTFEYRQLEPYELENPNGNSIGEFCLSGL

[5] = CRF-BP/CRF-R2 complex antagonists, dose response, cell-based, uHTS hits, 384-well (AID 651639); format: functional, Homo sapiens; settings: read-out: IC50_Mean
[6] = target: T2, Corticotropin-releasing factor receptor 2/Corticotropin-releasing factor-binding protein; experiment: Dose Response confirmation of uHTS hits for small molecule antagonists of the CRF-binding protein and CRF-R2 receptor complex.; format: functional; settings: read-out: IC50_Mean
Interleukin-8 [7] = target: T3, Interleukin-8 (Homo sapiens, UniProt P10145); experiment: Dose Response confirmation of uHTS small molecule hits for cystic fibrosis induced NFkb Inhibitors in a TNFa-induced IL8 counterscreen.; format: functional; settings: read-out: IC50_Mean
T3 sequence (P10145 whole entry): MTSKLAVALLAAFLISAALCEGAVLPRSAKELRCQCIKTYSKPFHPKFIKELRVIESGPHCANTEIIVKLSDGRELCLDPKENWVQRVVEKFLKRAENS

Interleukin-8 [8] = target: T3, Interleukin-8; experiment: Dose Response confirmation of uHTS small molecule hits for cystic fibrosis induced NFkb Inhibitors in a PAF-induced IL8 counterscreen.; format: functional; settings: read-out: IC50_Mean
[9] = target: T4, Heat shock factor protein 1 (Mus musculus, UniProt P38532); experiment: inhibition of MG132-induced HSE-luciferase signal, confirmation, cell-based, NIH3T3, luminescence, dose retest (AID 2382); format: functional;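 note: NIH3T3 fibroblasts with HSF1-driven luciferase reporter stressed by proteasome inhibitor MG132; luminescence from HSF1-driven luciferase expression after 8 hours of MG132 stress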
T4 sequence (P38532 whole entry): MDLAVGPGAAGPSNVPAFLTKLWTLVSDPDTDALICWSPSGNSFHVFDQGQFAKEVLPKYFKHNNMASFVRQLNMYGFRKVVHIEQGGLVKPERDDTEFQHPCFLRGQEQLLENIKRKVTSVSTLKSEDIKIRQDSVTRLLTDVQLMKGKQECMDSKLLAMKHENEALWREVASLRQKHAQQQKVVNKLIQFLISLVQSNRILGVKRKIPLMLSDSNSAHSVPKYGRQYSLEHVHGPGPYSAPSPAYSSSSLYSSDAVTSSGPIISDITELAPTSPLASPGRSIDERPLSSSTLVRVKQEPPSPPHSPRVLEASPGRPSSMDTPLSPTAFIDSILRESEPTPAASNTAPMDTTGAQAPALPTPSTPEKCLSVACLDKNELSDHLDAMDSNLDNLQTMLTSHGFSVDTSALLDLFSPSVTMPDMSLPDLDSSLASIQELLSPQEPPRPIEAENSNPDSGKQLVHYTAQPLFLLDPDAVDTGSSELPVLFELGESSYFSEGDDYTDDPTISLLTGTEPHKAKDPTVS

[10] = target: T5, Low molecular weight phosphotyrosine protein phosphatase (Homo sapiens, UniProt P24666); format: functional; settings: read-out: IC50_Mean;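 note: Dose-response confirmation assay measuring inhibition of LMPTP enzyme activity by fluorescence intensity read-out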
T5 sequence (P24666 whole entry): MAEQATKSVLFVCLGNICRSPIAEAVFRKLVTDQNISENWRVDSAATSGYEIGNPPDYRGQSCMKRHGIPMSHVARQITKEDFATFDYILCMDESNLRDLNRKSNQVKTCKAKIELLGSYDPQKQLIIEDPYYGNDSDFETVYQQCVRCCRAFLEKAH

[11] = target: T6, Small ubiquitin-related modifier 1 (Homo sapiens, UniProt P63165); experiment: inhibitors of SUMO1 partner interactions, dose response, biochemical, FRET (AID 624383); format: functional; settings: read-out: IC50_Mean
T6 sequence (P63165 whole entry): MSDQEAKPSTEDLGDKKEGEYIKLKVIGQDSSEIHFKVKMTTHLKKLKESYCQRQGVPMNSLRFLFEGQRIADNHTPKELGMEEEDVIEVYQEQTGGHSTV

[12] = target: T6, Small ubiquitin-related modifier 1; experiment: inhibitors of SUMO1 peptide binding, dose response, biochemical, fluorescence polarization, uHTS hits (AID 624382); format: functional; settings: read-out: IC50_Mean
[13] = Counterscreen for inhibitors of Trypanosoma brucei methionyl tRNA synthetase (MetRS): Luminescence-based cell-based high throughput dose response assay to identify compounds that are cytotoxic to Jurkat human T lymphocyte cells.; format: functional
[14] = target: T7, Methionyl-tRNA synthetase, putative (Trypanosoma brucei brucei, UniProt Q38C91); format: functional, Trypanosoma brucei brucei strain 927/4 GUTat10.1
T7 sequence (Q38C91 whole entry): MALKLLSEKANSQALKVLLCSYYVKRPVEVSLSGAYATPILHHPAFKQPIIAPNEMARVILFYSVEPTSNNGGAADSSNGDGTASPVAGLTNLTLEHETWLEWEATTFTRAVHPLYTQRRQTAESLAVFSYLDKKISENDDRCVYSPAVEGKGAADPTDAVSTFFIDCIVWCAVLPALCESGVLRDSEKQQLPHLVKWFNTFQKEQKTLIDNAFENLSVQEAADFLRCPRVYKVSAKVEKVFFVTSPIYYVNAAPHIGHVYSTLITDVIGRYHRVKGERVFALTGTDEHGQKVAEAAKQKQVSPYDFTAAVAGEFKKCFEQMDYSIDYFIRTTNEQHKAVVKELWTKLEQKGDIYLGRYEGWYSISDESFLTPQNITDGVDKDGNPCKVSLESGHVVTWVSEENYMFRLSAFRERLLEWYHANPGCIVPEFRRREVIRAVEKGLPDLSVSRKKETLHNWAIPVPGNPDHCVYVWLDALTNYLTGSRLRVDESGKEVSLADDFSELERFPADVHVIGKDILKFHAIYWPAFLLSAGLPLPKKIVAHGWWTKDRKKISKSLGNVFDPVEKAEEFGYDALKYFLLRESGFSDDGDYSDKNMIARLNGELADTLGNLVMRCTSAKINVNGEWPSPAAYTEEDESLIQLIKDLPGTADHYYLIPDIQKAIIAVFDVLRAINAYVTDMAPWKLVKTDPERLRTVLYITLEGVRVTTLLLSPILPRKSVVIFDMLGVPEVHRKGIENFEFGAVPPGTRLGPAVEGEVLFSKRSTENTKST

[15] = target: T7, Methionyl-tRNA synthetase, putative; format: functional, Trypanosoma brucei brucei strain 927/4 GUTat10.1; remark: listed apart in the source
[16] = ARNT/TACC3 interaction disruptors, potency, confirmation, biochemical, AlphaScreen, cherry-picked samples (AID 651703); format: functional, Homo sapiens;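 note: His-tagged ARNT PAS-B domain paired with GST-TACC3 E629A dimer coactivator fragment; potency of inhibitors that break up the complex and lower AlphaScreen signal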
[17] = target: T8, Carboxy-terminal domain RNA polymerase II polypeptide A small phosphatase 1 (Homo sapiens, UniProt Q9GZU7); experiment: inhibitors of CTDSP1, concentration-response testing, biochemical assay, absorbance-based, actives from ultra-high-throughput screening (AID 540297); format: functional
T8 sequence (Q9GZU7 whole entry): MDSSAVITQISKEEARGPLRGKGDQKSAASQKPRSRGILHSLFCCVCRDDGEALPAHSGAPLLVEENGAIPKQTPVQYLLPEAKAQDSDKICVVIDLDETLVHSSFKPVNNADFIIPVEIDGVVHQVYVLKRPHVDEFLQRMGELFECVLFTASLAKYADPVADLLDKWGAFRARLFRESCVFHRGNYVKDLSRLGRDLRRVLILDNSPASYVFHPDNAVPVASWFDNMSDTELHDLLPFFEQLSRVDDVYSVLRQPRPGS

[18] = Counterscreen for activators of the function of SWI/SNF related, matrix associated, actin dependent regulator of chromatin, subfamily a, member 2 (SMARCA2, BRM): Luminescence-based cell-based high throughput dose response assay to identify non-selective compounds using the VP16 reporter assay.; format: functional
[19] = target: SWI/SNF-related matrix-associated actin-dependent regulator of chromatin subfamily A member 2 (Homo sapiens, UniProt P51531); experiment: Luminescence-based cell-based high throughput dose response assay to identify activators of the function of SWI/SNF related, matrix associated, actin dependent regulator of chromatin, subfamily a, member 2 (SMARCA2, BRM).; format: functional
SWI/SNF-related matrix-associated actin-dependent regulator of chromatin subfamily A member 2, sequence (P51531 whole entry): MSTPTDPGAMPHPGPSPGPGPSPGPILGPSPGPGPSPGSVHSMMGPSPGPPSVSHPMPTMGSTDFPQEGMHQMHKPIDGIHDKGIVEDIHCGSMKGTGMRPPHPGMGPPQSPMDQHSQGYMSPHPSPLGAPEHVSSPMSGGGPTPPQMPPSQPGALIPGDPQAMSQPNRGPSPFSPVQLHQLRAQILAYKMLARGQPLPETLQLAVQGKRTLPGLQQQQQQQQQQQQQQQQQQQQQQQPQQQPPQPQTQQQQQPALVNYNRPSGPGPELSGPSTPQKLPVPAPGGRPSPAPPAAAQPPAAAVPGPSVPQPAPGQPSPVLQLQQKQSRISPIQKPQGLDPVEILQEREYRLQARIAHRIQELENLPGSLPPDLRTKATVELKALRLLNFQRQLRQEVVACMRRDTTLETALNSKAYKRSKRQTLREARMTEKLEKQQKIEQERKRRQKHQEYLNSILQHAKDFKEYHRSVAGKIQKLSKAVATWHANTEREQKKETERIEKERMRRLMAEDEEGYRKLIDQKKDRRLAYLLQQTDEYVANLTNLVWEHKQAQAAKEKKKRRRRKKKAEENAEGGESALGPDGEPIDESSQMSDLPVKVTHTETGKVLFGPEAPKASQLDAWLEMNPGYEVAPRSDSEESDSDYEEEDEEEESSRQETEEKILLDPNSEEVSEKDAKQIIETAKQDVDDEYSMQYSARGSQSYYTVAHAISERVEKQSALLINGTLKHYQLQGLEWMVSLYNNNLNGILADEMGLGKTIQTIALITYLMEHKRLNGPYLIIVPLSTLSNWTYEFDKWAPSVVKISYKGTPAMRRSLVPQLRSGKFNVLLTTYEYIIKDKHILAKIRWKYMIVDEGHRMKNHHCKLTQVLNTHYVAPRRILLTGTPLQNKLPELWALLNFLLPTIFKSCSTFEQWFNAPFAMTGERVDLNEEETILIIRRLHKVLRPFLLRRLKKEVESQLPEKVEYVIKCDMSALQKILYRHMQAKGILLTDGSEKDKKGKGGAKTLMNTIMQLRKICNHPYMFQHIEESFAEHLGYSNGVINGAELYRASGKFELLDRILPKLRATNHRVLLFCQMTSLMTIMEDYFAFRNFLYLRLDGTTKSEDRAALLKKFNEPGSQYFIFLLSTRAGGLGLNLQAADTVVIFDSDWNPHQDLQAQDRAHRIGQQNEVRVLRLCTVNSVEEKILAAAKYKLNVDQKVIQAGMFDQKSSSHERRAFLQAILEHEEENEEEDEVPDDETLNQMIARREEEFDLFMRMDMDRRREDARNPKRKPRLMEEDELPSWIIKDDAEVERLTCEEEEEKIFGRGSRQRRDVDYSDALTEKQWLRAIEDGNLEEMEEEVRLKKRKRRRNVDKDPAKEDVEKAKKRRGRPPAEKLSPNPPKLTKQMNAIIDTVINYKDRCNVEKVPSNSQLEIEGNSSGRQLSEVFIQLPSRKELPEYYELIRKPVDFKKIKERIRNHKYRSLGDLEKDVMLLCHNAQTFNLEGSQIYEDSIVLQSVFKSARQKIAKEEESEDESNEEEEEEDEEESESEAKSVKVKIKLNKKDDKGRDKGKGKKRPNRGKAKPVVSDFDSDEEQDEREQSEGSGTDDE

Protein skinhead-1 = target: T9, Protein skinhead-1 (Caenorhabditis elegans, UniProt P34707); format: functional
T9 sequence (P34707 whole entry): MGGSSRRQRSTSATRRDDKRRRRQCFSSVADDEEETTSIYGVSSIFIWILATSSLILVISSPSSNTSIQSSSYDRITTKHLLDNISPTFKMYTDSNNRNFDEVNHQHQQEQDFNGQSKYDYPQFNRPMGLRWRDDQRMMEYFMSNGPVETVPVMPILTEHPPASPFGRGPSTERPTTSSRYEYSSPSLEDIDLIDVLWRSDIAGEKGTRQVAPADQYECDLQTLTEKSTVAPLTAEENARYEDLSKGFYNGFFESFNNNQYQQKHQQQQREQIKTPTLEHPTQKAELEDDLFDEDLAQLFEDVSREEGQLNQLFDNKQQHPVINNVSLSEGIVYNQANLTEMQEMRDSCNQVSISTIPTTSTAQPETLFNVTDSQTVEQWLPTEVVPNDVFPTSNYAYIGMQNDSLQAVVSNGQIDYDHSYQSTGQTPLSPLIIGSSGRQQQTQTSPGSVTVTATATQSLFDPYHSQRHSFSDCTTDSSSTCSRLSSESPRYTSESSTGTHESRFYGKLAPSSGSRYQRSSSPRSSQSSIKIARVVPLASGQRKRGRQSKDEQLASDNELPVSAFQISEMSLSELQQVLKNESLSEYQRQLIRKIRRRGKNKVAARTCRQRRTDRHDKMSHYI

[20] = target: Matrix metalloproteinase-14 (Homo sapiens, UniProt P50281); experiment: Dose Response confirmation of uHTS hits for a small molecule inhibitors of MT1-MMP activation in a fluorescence assay set 1.; format: functional

T1 sequence (P65502 whole entry): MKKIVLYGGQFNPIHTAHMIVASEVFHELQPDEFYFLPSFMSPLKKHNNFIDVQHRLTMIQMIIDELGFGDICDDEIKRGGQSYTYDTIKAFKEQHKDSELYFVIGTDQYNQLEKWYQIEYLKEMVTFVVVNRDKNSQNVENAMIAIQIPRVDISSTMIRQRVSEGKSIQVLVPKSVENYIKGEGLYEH

CCOc1ccc(C(=O)N/N=C/c2ccc(-c3ccc(S(=O)(=O)Nc4ncccn4)cc3)o2)cc1
IC50 [1]: 23.8 µM (active)
IC50 [2]: 5.34 µM (active)

c1ccc(-n2nnnc2NCCc2c[nH]c3ccccc23)cc1
AC50 [3]: 9.93 µM (active)

Cc1noc(C)c1COC(=O)Cc1ccc(Cl)c(Cl)c1
EC50 [4]: > 53 µM (inactive)
IC50 [5]: > 20 µM (inactive)
IC50 [6]: 33.8 µM (active)

O=C(CN1c2ccccc2Sc2ccccc21)NNC(=S)Nc1ccc(Cl)cc1Cl
IC50 [1]: 52.2 µM (active)
IC50 [2]: 13.7 µM (active)

CCN1CCN(Cc2ccc(NC(=O)c3ccc(C)c(NC(=O)c4cccc5[nH]ccc45)c3)cc2C(F)(F)F)CC1
IC50 (Interleukin-8 [7]): 39.9 µM (inactive)
IC50 (Interleukin-8 [8]): 4.72 µM (active)
EC50 [9]: 2.79 µM (active)

O=C(Nc1ccc2oc(-c3ccncc3)nc2c1)c1ccc2c(c1)OCO2
IC50 [10]: 7.98 µM (active)
IC50 [11]: 7.12 µM (active)
IC50 [12]: > 66.6 µM (inactive)

COCCCn1c(-c2ccc(OC)cc2)cc(C(=O)NC2CCCCCCC2)c1C
EC50 [4]: > 53 µM (inactive)
IC50 [5]: 11.5 µM (active)
IC50 [6]: 3.95 µM (active)

O=C(CSc1nc2ccccc2[nH]1)Nc1nc(-c2ccc(Br)cc2)cs1
IC50 [13]: 55.6 µM (inactive)
IC50 [14]: 90.6 µM (inactive)
IC50 [15]: 85.4 µM (inactive)

CCN(CC)C(=O)CSc1nnc(-c2ccccn2)n1-c1ccc(C)c(C)c1
AC50 [16]: 92.4 µM (active)

COC(=O)c1ccc(C(=O)Nc2ccc3c(c2)C(=O)NC3=O)cc1
IC50 [17]: 6.87 µM (active)
IC50 [11]: 5.19 µM (active)
IC50 [12]: > 66.6 µM (inactive)

CCc1c(C)c2ccc(OC3CCCCC3=O)cc2oc1=O (stereo not drawn)
EC50 [18]: > 91.2 µM (inactive)
EC50 [19]: > 91.2 µM (inactive)

O=C(NNc1c2ccccc2nc2ccccc12)c1ccc(Cl)cc1
IC50 (Protein skinhead-1): > 100 µM (inactive)
IC50 [20]: 46.5 µM (inactive)
